This experiment addresses T1, MDM2 (Homo sapiens, UniProt Q00987).
T1 construct: GST-MDM2
As to the kind of experiment: fluorescence polarization competitive binding assay (PMDM6-F tracer); also cellular thermal shift assay in MCF-7 and MDA-MB-231 cells. For orientation: In fluorescence polarisation assays a small probe gives low polarisation when free and higher when bound to something large.

T1 sequence (Q00987 whole entry): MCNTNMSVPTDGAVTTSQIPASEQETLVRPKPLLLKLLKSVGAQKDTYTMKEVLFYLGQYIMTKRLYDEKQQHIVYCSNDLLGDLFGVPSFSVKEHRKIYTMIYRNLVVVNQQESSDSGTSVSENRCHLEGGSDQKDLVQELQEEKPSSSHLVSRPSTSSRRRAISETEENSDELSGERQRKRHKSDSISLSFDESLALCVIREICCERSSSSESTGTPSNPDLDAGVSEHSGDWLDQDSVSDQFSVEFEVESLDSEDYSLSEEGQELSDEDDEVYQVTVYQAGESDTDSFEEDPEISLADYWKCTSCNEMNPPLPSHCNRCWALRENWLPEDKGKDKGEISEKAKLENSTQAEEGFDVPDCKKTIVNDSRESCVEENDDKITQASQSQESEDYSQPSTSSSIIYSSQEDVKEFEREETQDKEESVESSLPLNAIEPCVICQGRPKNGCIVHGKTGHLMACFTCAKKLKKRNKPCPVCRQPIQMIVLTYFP

The term Ki denotes the dissociation constant of the complex between target and ligand, obtained from inhibition or displacement. Turning to JapA, the Ki came to 270 nM.

For the origin of these results see paper PMC4413606, “Identification of a new class of natural product MDM2 inhibitor: In vitro and in vivo anti-breast cancer activities and target validation” (Oncotarget, 2014).
